Marks after values point to notes of the source that are not given here.
Assays:
EAN model rats [1] = test: Pre-experimental dose study: clinical score of neurological symptoms of EAN model rats; type: in vivo, Lewis rats; settings: score 0-10
Protocol: Persons skilled in the art learn that, pharmacological effect and dose are in a proportional relationship, i.e., a dose-effect relationship, only within a certain range.
(§1) For each rat in an EAN model group, an inoculum was subcutaneously injected into foot pads of hind limbs on two sides, 200 μL/rat (100 μL per side). […] For the negative control group, isopyknic normal saline was injected. For each group of animals, medicine administration was started from the first day after immunization, for 30 days in total.
(§2) The day of molding serves as the 0th day, and after that is 30 days of observation period. Observation date is represented by D plus number, D1, D2 and D3 respectively represent Observation date 1, Observation date 2 and Observation date 3, and subsequent dates are represented in the same way. Rats were weighed once every two days, and clinical symptoms of all experimental animals were scored. Within one week of a peak period (D14-D20) of disease attack of animals, weighing and clinical symptom scoring were performed every day. Score standards are as below: 0, normal; 1, a soft tail; 2, unable to lift a tail; 3, unable to automatically correct a body position; 4, ataxia; 5, mild paralysis of hind limbs; 6, moderate paralysis of hind limbs; 7, severe paralysis of hind limbs; 8, paresis of four limbs; 9, severe paresis of four limbs; and 10, death.
(§3) Data is represented by mean±standard deviation (x±SD). For scores of symptoms and scores of algesia, a non-parametric test Mann-Whitney U was used to compare differences between two groups. When P is less than 0.05, a statistic difference occurs.

EAN model rats [2] = test: Scores of neurological symptoms (clinical score) of EAN model rats, Test Example 1; type: in vivo, Lewis rats; design: key: 0 = normal, 5 = mild hind-limb paralysis, 10 = death; settings: monomers 4.5 mg/kg, combinations 6.0-13.5 mg/kg; for Clinical score D12: D12, intragastric 2 times a day; for Clinical score D14: D14, intragastric 2 times a day; for Clinical score D22: D22, intragastric 2 times a day; for Clinical score D24: D24, intragastric 2 times a day; for Clinical score D26: D26, intragastric 2 times a day; for Clinical score D20: D20, intragastric 2 times a day
Protocol: 20 experimental groups, 10 […] in each group.
(§4) Intragastric administration, 2 times a day. Medicines were dissolved in accessories (glycerin:ethanol=6:4 V/V) to reach 5 mg/ml, and then were configured to reach corresponding concentrations by using sterilized drinking water.
as §1, §2, §3

EAN model rats [3] = test: Test on algesia of ankle joint (pain reaction score) of EAN model rats; type: in vivo, Lewis rats; settings: ankle dorsiflexion, score 0-5
Protocol: as §4, §1
Near a peak period of disease attack of EAN model animals, a test on algesia of ankle joints was performed on EAN model animals and adjuvant control animals, and rats in a rest state were forced to bend hind legs towards foot soles (dorsiflexion). For each side, 5 tests were made, at an interval of at least 5 s. For each time of dorsiflexion, if rats screamed or obviously withdrew paws, 1 score was counted. For each side, a total score is 0-5.
as §3

TNF-α = test: mRNA level of TNF-α in sciatic nerve tissue of EAN model rabbits (RT-PCR); type: in vivo, big-ear white rabbits; settings: 14th day after modeling, ginkgolide groups 4.5 mg/kg intragastric 2 times a day, positive control 400 mg/kg·d i.p. 5 days
Protocol: (§5) 21 experimental groups, 8 rabbits in each group.
(§6) Positive control group: rabbit immune globulin, 400 mg/kg·d, intraperitoneal injection, for 5 consecutive days
(§7) The ginkgolide groups are set the same as Test example 1, i.e., include the ginkgolide A group to the ginkgolide K group (GA group to GK group), the bilobalide group (BB group) and the ginkgolide I group to the ginkgolide XI group, 18 groups in total. Ginkgolide used in each group has the same monomeric composition and ratio as those of Test example 1, but only differs in that the ginkgolide groups all use the same medicine administration dosage, i.e., 4.5 mg/kg.
as §4
(§8) EAN rabbit modeling: a certain amount of bovine sciatic nerve myelin basic protein and an isopyknic complete Freund's adjuvant were taken, shaken up by using a test tube oscillator, sufficiently mixed, and then subcutaneously injected into a back of each rabbit at multiple points.
(§9) Anesthesia was performed on the 14th day after modeling, to take sciatic nerve tissue of rabbits, and total RNA was extracted by a Trizol method. Detection was performed by a RT-PCR method. (GBS is an autoimmune disease of a nervous system. In-vivo autoreactive T cells of a patient have a cellular immunologic response to myelin P2 antigens, to form a delayed allergic reaction peripheral nerve demyelination pathological injury. This process is mainly mediated by CD4^+T cells, also named initial Th cells that may be differentiated into Th1 and Th2 after antigenic stimulation. Th1 cytokines (represented by TNF-α and IL-12) mainly enhance a cell mediated immune response, and are inflammatory cytokines; and Th2 cytokines (represented by IL-4 and IL-10) mainly participate in an antibody mediated immune response, and have an immune down-regulation and anti-inflammation effect. In GBS and ENA research, unbalance of Th1/Th2 plays an important role in disease injuries.)
(§10) Data is represented by mean±standard deviation (x±SD). Differences between two groups were compared. When P is less than 0.05, a statistic difference occurs.

IL-12 = test: mRNA level of IL-12 in sciatic nerve tissue of EAN model rabbits (RT-PCR); type: in vivo, big-ear white rabbits; settings: 14th day after modeling, ginkgolide groups 4.5 mg/kg intragastric 2 times a day, positive control 400 mg/kg·d i.p. 5 days
Protocol: as §5, §6, §7, §4, §8, §9, §10

IL-4 = test: mRNA level of IL-4 in sciatic nerve tissue of EAN model rabbits (RT-PCR); type: in vivo, big-ear white rabbits; settings: 14th day after modeling, ginkgolide groups 4.5 mg/kg intragastric 2 times a day, positive control 400 mg/kg·d i.p. 5 days
Protocol: as §5, §6, §7, §4, §8, §9, §10

IL-10 = test: mRNA level of IL-10 in sciatic nerve tissue of EAN model rabbits (RT-PCR); type: in vivo, big-ear white rabbits; settings: 14th day after modeling, ginkgolide groups 4.5 mg/kg intragastric 2 times a day, positive control 400 mg/kg·d i.p. 5 days
Protocol: as §5, §6, §7, §4, §8, §9, §10

Row | Molecule | Clinical score (D17) (EAN model rats [1]; 2.0 mg/kg) | Clinical score (D17) (EAN model rats [1]; 4.5 mg/kg) | Clinical score (D17) (EAN model rats [1]; 15 mg/kg) | Clinical score D12 (EAN model rats [2]) | Clinical score D14 (EAN model rats [2]) | Clinical score D22 (EAN model rats [2]) | Clinical score D24 (EAN model rats [2]) | Clinical score D26 (EAN model rats [2]) | Pain reaction score (D18) (EAN model rats [3]) | Cytokines TNF-α (mRNA level, sciatic nerve tissue) (TNF-α) | Cytokines IL-12 (mRNA level, sciatic nerve tissue) (IL-12) | Cytokines IL-4 (mRNA level, sciatic nerve tissue) (IL-4) | Cytokines IL-10 (mRNA level, sciatic nerve tissue) (IL-10) | Clinical score D20 (EAN model rats [2]) | Clinical score D16 (EAN model rats [2]; D16, intragastric 2 times a day) | Clinical score (D17) (EAN model rats [2]; D17, intragastric 2 times a day) | Clinical score D19 (EAN model rats [2]; D19, intragastric 2 times a day)
1 | ginkgolide C | 6.90 ± 0.88 | 6.10 ± 0.57*^Δ | 6.00 ± 0.67*^Δ | 4.4 ± 0.7 | 5.2 ± 0.8 | 4.4 ± 0.5 | 3.8 ± 0.8 | 3.1 ± 0.6 | 1.9 ± 0.88 | 4.548 ± 0.154 | 6.009 ± 0.357 | 0.585 ± 0.053 | 0.561 ± 0.090 |  |  |  | 
2 | C[C@@H]1C(=O)O[C@@H]2[C@H]1[C@@]13OC4OC(=O)[C@H](O)C45[C@H](C(C)(C)C)[C@@H](O)C(OC1=O)[C@]53[C@H]2O (stereo partly drawn) [Ginkgolide M, ginkgolide M] | 7.10 ± 0.32 | 6.40 ± 0.97*^Δ | 6.50 ± 0.71*^Δ | 4.5 ± 0.7 | 5.6 ± 0.5 | 4.6 ± 0.5 | 4.0 ± 0.7 | 3.2 ± 0.6 | 1.4 ± 0.52 | 4.797 ± 0.147 | 6.260 ± 0.411 | 0.558 ± 0.050 | 0.550 ± 0.061 | 5.5 ± 0.5 |  |  | 
3 | ginkgolide J | 7.10 ± 0.57 | 6.40 ± 0.84*^Δ | 6.30 ± 0.82*^Δ | 4.4 ± 0.7 | 5.5 ± 0.5 | 4.6 ± 0.5 | 4.0 ± 0.7 | 3.2 ± 0.6 | 1.3 ± 0.67 | 4.810 ± 0.070 | 6.211 ± 0.489 | 0.551 ± 0.050 | 0.501 ± 0.037 | 5.6 ± 0.5 | 6.5 ± 0.5 | 7.4 ± 0.5 | 6.2 ± 0.6
4 | CC1=C2[C@@H](OC1=O)[C@H](O)[C@]13[C@H]4C[C@@H](C(C)(C)C)[C@]15[C@@H](OC(=O)[C@@H]5O)O[C@@]23C(=O)O4 [Ginkgolide K, ginkgolide K] | 7.20 ± 0.42 | 6.50 ± 0.85*^Δ | 6.70 ± 0.82*^Δ | 4.5 ± 0.7 | 5.6 ± 0.5 | 4.5 ± 0.5 | 3.9 ± 0.7 | 3.1 ± 0.6 | 1.2 ± 0.63 | 4.739 ± 0.094 | 6.412 ± 0.169 | 0.557 ± 0.046 | 0.524 ± 0.026 | 5.5 ± 0.5 |  |  | 
5 | C[C@@H]1C(=O)O[C@H]2C[C@@]34[C@H]5C[C@@H](C(C)(C)C)[C@]36[C@@H](OC(=O)[C@@H]6O)O[C@@]4(C(=O)O5)[C@]21O [Ginkgolide A, ginkgolide A] | 7.00 ± 0.82 | 6.10 ± 0.74*^Δ | 6.00 ± 1.25*^Δ | 4.4 ± 0.5 | 5.3 ± 0.5 | 4.4 ± 0.5 | 3.7 ± 0.8 | 3.1 ± 0.6 | 2.0 ± 0.67 | 4.693 ± 0.115 | 5.977 ± 0.141 | 0.569 ± 0.048 | 0.584 ± 0.039 |  |  |  | 
6 | CC(C)(C)[C@]1(O)CC2OC(=O)CC23C(=O)OC2OC(=O)[C@H](O)C231 (stereo partly drawn) [Bilobalide, bilobalide] | 5.70 ± 0.67 | 4.80 ± 0.63*^Δ | 4.90 ± 0.88*^Δ |  |  |  |  |  | 2.9 ± 0.74 | 3.054 ± 0.182 | 4.087 ± 0.275 | 0.792 ± 0.065 | 0.783 ± 0.128 |  |  |  | 
7 | CC1C(=O)OC2C(O)C34C5CC(C(C)(C)C)C36C(OC(=O)C6O)OC4(C(=O)O5)C12O (stereo not drawn) [Ginkgolide B, ginkgolide B] | 6.10 ± 1.10 | 5.10 ± 0.57*^Δ | 5.20 ± 0.63*^Δ |  |  |  |  |  | 3.0 ± 0.67 | 2.978 ± 0.102 | 3.928 ± 0.409 | 0.769 ± 0.041 | 0.813 ± 0.055 |  |  |  | 

Source: US20220193030A1, “USE OF GINKGO TERPENE LACTONE IN PREPARING DRUG FOR PREVENTING AND/OR TREATING GUILLAIN-BARRE-STROHL SYNDROME” (CHENGDU BAIYU PHARMACEUTICAL CO., LTD., priority 2019, published 2022)
